This is an account of results in PMC9249808, “A novel lipidic peptide with potential to promote balanced effector-regulatory T cell responses” (Scientific Reports, 2022).

The test system of assay [1] is CD4+ T cells within T cell cultures. Description: Flow cytometry of CD4+ T cells within isolated CD3+ T cell cultures (anti-CD3/anti-CD28). The format is cell-based, human. The conditions noted are these: anti-CD3/anti-CD28, 72 h, MFI, Fig. 1b (IK14004), Fig. 1e (IK14000). As to the method:
CD3^+ T cells were isolated from PBMCs by negative selection using immune-magnetic separation (Stem cell kits), resuspended in complete medium as used for PBMCs at 0.5 × 10^6/mL and plated at a density of 5 × 10^4 per well (100 µL) in 96-well, flat bottom culture plates. CD4^+ and CD8^+ T cell populations were isolated by immunomagnetic separation and resuspended in RPMI-10 at 0.5 × 10^6/mL with a plating density of 0.5 × 10^5 per well. Either the lipidic peptide, IK14004, or IK14000 ([…]) was added to wells at a final volume of 50 µL per well, together with anti-CD3 anti-CD28 coated Dynabeads (ThermoFisher) at a 4:1 cell:bead ratio (1.25 × 10^4/well, 50 µL volume) and cells cultured for 72 h at 37 °C and 5% CO2. […]
For flow cytometry and ELISA experiments, data from IK14004 and vehicle groups were analysed using parametric statistical procedures. […]
(In flow cytometry, cells or beads pass a laser one at a time.)

The next assay deals with c-Src. The settings on record: cited from earlier work. The source says: Given the role of NFAT proteins in regulating transcription of IFN-γ[46],[47], suppression of NFAT attenuates IFN-γ-activated endogenous IL-12p40 mRNA expression. In addition, IFN-γ production in DCs is dependent on a Janus kinase (JAK) family member, Tyk2, that signals via signal transducers and activators of transcription (STATs)[49] and within DCs, c-Src contributes to c ... || Given the role of Lck in upstream signalling upon TCR activation[34],[35] which leads to IL-2 production[10],[11], we tested the effect of a known Lck inhibitor, A-770041 on IL-2 expression within supernatants from stimulated T cell cultures after 72 h.

Assay [2] relates to CD4+ T cells within PBMC cultures. Description: Intracellular IFN-γ in CD4+ T cells within PBMC cultures (flow cytometry). The assay is classed as cell-based, human. The settings on record: anti-CD3, 24 h, MFI, n = 4, Fig. 5c. As to the method:
PBMCs were resuspended in RPMI-10 (RPMI-1640; ThermoFisher) supplemented with 10% heat inactivated Foetal Bovine Serum (LabTech), 100 U/mL penicillin, 100 µg/mL streptomycin (ThermoFisher), 2 mM L-glutamine (ThermoFisher), and 50 µM β-mercaptoethanol (ThermoFisher) at 1 × 10^6 cells/mL and plated at a density of 1 × 10^5 per well (100 µL) in 96-well, flat-bottom culture plates. PBMCs were stimulated with 1 µg/mL of soluble anti-CD3 (BioLegend). The lipidic peptide, IK14004, and IK14000, i.e., […] minus conjugation to [{2}Adod]4, were solubilised as a 1 mM stock solution in sterile milliQ water (Lonza) and added to wells at a final volume of 50 µL per well together with soluble anti-CD3 (1 µg/mL final, 50 µL per well) (Biolegend). To test the effect of peptides, cells were cultured for 24–72 h at 37 °C and 5% CO2. Vehicle controls in peptide-based experiments comprised 0.13% sterile milliQ water in culture medium whereas 0.1% DMSO in culture medium was used as vehicle control for comparison with the Lck inhibitor, A-770041, in the absence of peptides. […]

As for RSKAKNPLYR [IK14000], in assay [1], the “CD25 expression in CD4+ T cells” value is “decrease in CD25 expression in CD4+ T cells at higher concentrations”. Also, the “c-Src activity, earlier report” value with c-Src is on record as “inhibits c-Src activity”. Besides, the “intracellular expression of IFN-γ in CD4+ T cells” value in assay [2] is listed as “unchanged”.
